Reference: ChEMBL document CHEMBL1126784, “A selective delta 1 opioid receptor agonist derived from oxymorphone. Evidence for separate recognition sites for delta 1 opioid receptor agonists and antagonists” (J Med Chem, 1993)

Experiments:
Mus musculus = test: Antinociceptive potency in mice using the tail-flick test on icv administration.; type: functional
Mu-type opioid receptor = Mu-type opioid receptor (Cavia porcellus, UniProt P97266); test: selective binding affinity against mu opioid receptor, using [3H]DAMGO as radioligand
[1] = molecular target: Kappa-type opioid receptor (Cavia porcellus, UniProt P41144); test: selective binding affinity against kappa opioid receptor, using [3H]U-69593 as radioligand
Kappa-type opioid receptor, sequence (P41144 whole entry): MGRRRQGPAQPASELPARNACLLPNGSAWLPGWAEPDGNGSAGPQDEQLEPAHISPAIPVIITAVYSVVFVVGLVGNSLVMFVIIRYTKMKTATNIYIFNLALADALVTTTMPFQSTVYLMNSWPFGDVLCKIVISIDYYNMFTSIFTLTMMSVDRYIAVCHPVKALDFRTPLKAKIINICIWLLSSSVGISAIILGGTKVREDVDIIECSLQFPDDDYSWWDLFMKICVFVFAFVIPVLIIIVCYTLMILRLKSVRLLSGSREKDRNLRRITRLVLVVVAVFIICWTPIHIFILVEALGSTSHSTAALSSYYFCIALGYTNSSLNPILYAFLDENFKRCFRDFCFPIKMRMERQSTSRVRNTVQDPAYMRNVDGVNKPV

Mu-type opioid receptor, sequence (P97266 whole entry): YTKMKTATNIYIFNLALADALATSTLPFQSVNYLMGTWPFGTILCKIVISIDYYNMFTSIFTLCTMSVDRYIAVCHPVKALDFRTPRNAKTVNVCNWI

CC1(C)SSC(C)(C)[C@@H](NC(=O)[C@@H](N)Cc2ccc(O)cc2)C(=O)NCC(=O)N[C@@H](Cc2ccccc2)C(=O)N[C@H]1C(=O)O
ED50 (Mus musculus): 11.5 nM mouse-1

CN1CC[C@]23c4c5ccc(O)c4O[C@H]2C(=O)C2(Cc4ccccc4C2)C[C@@]3(O)[C@H]1C5 [SPIROINDANYLOXYMORPHONE]
ED50 (Mus musculus): 1.7 nM mouse-1
Ki (Mu-type opioid receptor): 10.6 nM
Ki [1]: 588 nM
